In brackets after ≈: the same amount, converted by molar mass. Like-named read-outs stand apart in the source and are kept apart here.
How the values were obtained:
[1] = test system: P. falciparum NF54 strain; experiment: P. falciparum NF54 [3H]hypoxanthine incorporation assay, 72 h, 0.5% Albumax; type: cell-based; conditions: Plasmodium falciparum
[2] = test system: rat myoblast cell line (L6 cells); type: cell-based
Text: Considering the potency of plasmodione and the observed main metabolite 6-hydroxy–plasmodione eliminated in the urine of PD-treated mice, our primary goal was to introduce a fluorine atom at C-6 of the menadione core to block the process of drug metabolism from occurring in the host’s liver. In this aim, we prioritized the preparation of a library of 6-fluoro-3-benzylmenadiones by investigating the replacement of the trifluoromethyl group by diverse EWG and EDG groups in various loci of the aryl ring. For SAR, all compounds were tested for the inhibition of parasite growth in RBCs infected with a P. falciparum chloroquine-sensitive strain, NF54. The parasites were cultured in vitro according to known conditions. […] The cytotoxicity of the active compounds was assessed against a rat myoblast cell line (L6 cells).
Cell proliferation was assessed with resazurin, and the generally cytotoxic agent podophyllotoxin served as the positive control, as previously reported by the STPH authors M. R. and P. M. in their recently published article.

[3] = test system: P. falciparum NF54 strain; conditions: cited from earlier work
[4] = test system: rat myoblast cell line (L6 cells); conditions: cited from earlier work
[5] = Thermodynamic aqueous solubility (shake-flask, PBS-10% DMSO); type: physicochemical; conditions: PBS with 10% DMSO, aqueous with cosolvent or surfactant or cyclodextrin, PBS pH 7.4, 10% DMSO, 20 °C, read-out: Thermodynamic aq. Solubility in PBS-10% DMSO
Procedure: Thermodynamic Aqueous Solubility: The shake-flask method enabled us to determine the apparent thermodynamic solubilities of the DMSO stock solutions of the compounds. […] The mixture was equilibrated at 20 °C for 24 h. After centrifugation, the supernatant was injected into an HPLC column coupled to an LC-MS apparatus (with UV–Vis detection) in order to determine the compound concentration. […] These solutions were also injected in order to calibrate the concentration determination process. […] Measurements were performed in duplicate.

[6] = NF54, 72 h, P. falciparum NF54, 72 h, read-out: IC50
[7] = NF54, as stated in text, read-out: IC50 against P. falciparum NF54
[8] = NF54, read-out: IC50 against P. falciparum NF54

Row | IC50 [1, 6] [nM] | SMILES | Tox/L6 [2] [µM] | other results
1 | 138 | CC1=C(Cc2ccccc2C(F)(F)F)C(=O)c2cc(F)ccc2C1=O [A-a-2] | 53.4 | –
2 | 330 | CC1=C(Cc2ccc(OC(F)(F)F)cc2)C(=O)c2cc(F)ccc2C1=O [A-a-3] | 138.8 | –
3 | 302 | CC1=C(Cc2ccc(F)cc2)C(=O)c2cc(F)ccc2C1=O [A-a-4] | 174.5 | –
4 | 246 | CC1=C(Cc2cccc(F)c2)C(=O)c2cc(F)ccc2C1=O [A-a-5] | 6.6 | –
5 | 735 | CC1=C(Cc2ccc(C(F)(F)F)c(F)c2)C(=O)c2cc(F)ccc2C1=O [A-a-7] | 85.5 | –
6 | 149 | CC1=C(Cc2ccc(F)c(C(F)(F)F)c2)C(=O)c2cc(F)ccc2C1=O [A-a-9] | – | –
7 | 231 | CC1=C(Cc2ccc(C#N)cc2)C(=O)c2cc(F)ccc2C1=O [A-a-10] | 95 | –
8 | 103 | CC1=C(Cc2ccc(Cl)cc2C(F)(F)F)C(=O)c2cc(F)ccc2C1=O [A-a-15] | – | –
9 | 1120 | COc1ccc(CC2=C(C)C(=O)c3ccc(F)cc3C2=O)cc1 [A-a-16] | 195.9 | –
10 | 572 | COc1ccccc1CC1=C(C)C(=O)c2ccc(F)cc2C1=O [A-a-18] | 189.3 | –
11 | 291 | COc1ccc(OC)c(CC2=C(C)C(=O)c3ccc(F)cc3C2=O)c1 [A-a-26] | 91.7 | –
12 | 2960 | CC1=C(Cc2ccc(C(F)(F)F)c(F)c2)C(=O)c2ccccc2C1=O [A-b-7] | 49.2 | –
13 | 312 | CC1=C(Cc2ccccc2C#N)C(=O)c2ccccc2C1=O [A-b-11] | 186.2 | –
14 | 200 | CC1=C(Cc2ccc3c(c2)OCO3)C(=O)c2ccccc2C1=O [A-b-21] | 97.9 | –
15 | 115 | CC1=C(Cc2cccs2)C(=O)c2ccccc2C1=O [A-b-28] | 5.2 | –
16 | 326 | CC1=C(Cc2cccc(C#N)c2)C(=O)c2cc(F)ccc2C1=O [B-a-30] | 33.3 | –
17 | 300 | CC1=C(Cc2ccccc2)C(=O)c2cc(F)ccc2C1=O [B-a-31] | 174.5 | –
18 | 705 | CC1=C(Cc2ccc([N+](=O)[O-])c(F)c2)C(=O)c2cc(F)ccc2C1=O [B-a-32] | 107.4 | –
19 | 376 | CC1=C(Cc2ccc(F)c(I)c2)C(=O)c2cc(F)ccc2C1=O [B-a-33] | – | –
20 | 89 | CC1=C(Cc2cccc(F)c2)C(=O)c2ccccc2C1=O [B-b-5] | 71.0 | IC50 [1, 7]: < 100 nM
21 | 136 | CC1=C(Cc2ccc(F)c(I)c2)C(=O)c2ccccc2C1=O [B-b-33] | – | –
22 | 78 | CC1=C(Cc2ccc(Br)cc2C(F)(F)F)C(=O)c2ccccc2C1=O [B-b-34] | – | –
23 | 2530 | CC1=C(Cc2ccc3ncsc3c2)C(=O)c2cc(F)ccc2C1=O [C-a-41] | – | –
24 | 235 | CC1=C(Cc2ccc3scnc3c2)C(=O)c2ccccc2C1=O [C-b-40] | 50.29 | –
25 | 48 | CC1=C(Cc2ccc(S(F)(F)(F)(F)F)cc2)C(=O)c2ccccc2C1=O [C-b-46, 4′-SF5-substituted 3-benzylmenadione] | 35.1 | –

Continued, compound first:

Row | SMILES | IC50 [1, 6] [nM] | Tox/L6 [2] [µM] | other results
26 | CC1=C(Cc2cccc(C(F)(F)F)c2)C(=O)c2cc(F)ccc2C1=O [A-a-1] | 82 | 12.5 | –
27 | CC1=C(Cc2ccccc2F)C(=O)c2cc(F)ccc2C1=O [A-a-6] | 119 | 7.6 | –
28 | CC1=C(Cc2ccc(C(F)(F)F)c(Br)c2)C(=O)c2cc(F)ccc2C1=O [A-a-8] | 167 | – | –
29 | CC1=C(Cc2ccccc2C#N)C(=O)c2cc(F)ccc2C1=O [A-a-11] | 264 | 327.0 | –
30 | CC1=C(Cc2ccc([N+](=O)[O-])cc2)C(=O)c2cc(F)ccc2C1=O [A-a-12] | 177 | 307.0 | –
31 | CC1=C(Cc2ccc(I)cc2)C(=O)c2cc(F)ccc2C1=O [A-a-13] | 198 | 40.9 | –
32 | CC1=C(Cc2ccc(Cl)cc2Cl)C(=O)c2cc(F)ccc2C1=O [A-a-14] | 137 | – | –
33 | COc1cccc(CC2=C(C)C(=O)c3ccc(F)cc3C2=O)c1 [A-a-17] | 361 | 165.6 | –
34 | COc1ccc(CC2=C(C)C(=O)c3ccc(F)cc3C2=O)cc1OC [A-a-19] | 171 | 5.6 | –
35 | COc1ccc(CC2=C(C)C(=O)c3ccc(F)cc3C2=O)c(OC)c1 [A-a-20] | 316 | 106.6 | –
36 | CC1=C(Cc2ccc3c(c2)OCO3)C(=O)c2cc(F)ccc2C1=O [A-a-21] | 70 | 165.6 | IC50 [1, 7]: < 100 nM
37 | CC1=C(Cc2ccc3c(c2)OCCO3)C(=O)c2cc(F)ccc2C1=O [A-a-22] | 311 | – | –
38 | CC1=C(Cc2ccc3c(c2)OC(C)(C)O3)C(=O)c2cc(F)ccc2C1=O [A-a-23] | 338 | – | –
39 | CC1=C(Cc2ccc3c(c2)OC(F)(F)O3)C(=O)c2cc(F)ccc2C1=O [A-a-24] | 206 | – | –
40 | COc1ccc(CC2=C(C)C(=O)c3ccc(F)cc3C2=O)c(OC)c1OC [A-a-25] | 340 | 215.5 | –
41 | COc1cc(CC2=C(C)C(=O)c3ccc(F)cc3C2=O)cc(OC)c1OC [A-a-27] | 265 | 72.4 | –
42 | CC1=C(Cc2cccs2)C(=O)c2cc(F)ccc2C1=O [A-a-28] | 474 | 5.8 | –
43 | CC1=C(CC2CCCCC2)C(=O)c2cc(F)ccc2C1=O [A-a-29] | 718 | 177.8 | –
44 | CC1=C(Cc2ccc(F)cc2)C(=O)c2ccccc2C1=O [A-b-4] | – | – | IC50 ([3]; grey line ref 13): 29 nM; IC50 [1, 8]: < 100 nM
45 | CC1=C(Cc2ccccc2F)C(=O)c2ccccc2C1=O [A-b-6] | 453 | – | –
46 | CC1=C(Cc2ccc(C(F)(F)F)c(Br)c2)C(=O)c2ccccc2C1=O [A-b-8] | 81 | – | IC50 [1, 7]: < 100 nM

Row | SMILES | IC50 [1, 6] [nM] | Tox/L6 [2] [µM] | other results
47 | CC1=C(Cc2ccc([N+](=O)[O-])cc2)C(=O)c2ccccc2C1=O [A-b-12] | – | – | IC50 ([3]; grey line ref 8): 201 nM; IC50 [1, 8]: > 200 nM
48 | CC1=C(Cc2ccc(Cl)cc2Cl)C(=O)c2ccccc2C1=O [A-b-14] | 67 | – | IC50 [1, 7]: < 100 nM
49 | CC1=C(Cc2ccc(Cl)cc2C(F)(F)F)C(=O)c2ccccc2C1=O [A-b-15] | 80 | – | IC50 [1, 7]: < 100 nM
50 | COc1ccc(CC2=C(C)C(=O)c3ccccc3C2=O)cc1OC [A-b-19] | – | – | Tox/L6 ([4]; grey line ref 13): 5.6 µM; IC50 ([3]; grey line ref 13): 142 nM
51 | CC1=C(Cc2ccc3c(c2)OCCO3)C(=O)c2ccccc2C1=O [A-b-22] | 280 | – | –
52 | CC1=C(Cc2ccc3c(c2)OC(C)(C)O3)C(=O)c2ccccc2C1=O [A-b-23] | 152 | – | –
53 | CC1=C(Cc2ccc3c(c2)OC(F)(F)O3)C(=O)c2ccccc2C1=O [A-b-24] | 77 | – | IC50 [1, 7]: < 100 nM
54 | CC1=C(CC2CCCCC2)C(=O)c2ccccc2C1=O [A-b-29] | 913 | 229.9 | –
55 | CC1=C(Cc2ccco2)C(=O)c2ccccc2C1=O [A-b-43] | – | – | Tox/L6 ([4]; grey line ref 8): 4.2 µM; IC50 ([3]; grey line ref 8): 501 nM
56 | CC1=C(Cc2ccc(Br)cc2C(F)(F)F)C(=O)c2cc(F)ccc2C1=O [B-a-34] | 169 | – | –
57 | COc1cc(CC2=C(C)C(=O)c3ccc(F)cc3C2=O)cc(OC)c1 [B-a-35] | 711 | 293.0 | –
58 | CC1=C(Cc2cccc(C(F)(F)F)c2)C(=O)c2ccccc2C1=O [B-b-1] | – | – | Tox/L6 ([4]; grey line ref 9): 57.1 µM; IC50 ([3]; grey line ref 9): 62 nM; IC50 [1, 7]: < 100 nM
59 | CC1=C(Cc2ccccc2C(F)(F)F)C(=O)c2ccccc2C1=O [B-b-2] | – | – | Tox/L6 ([4]; grey line ref 9): 249.8 µM; IC50 ([3]; grey line ref 9): 26 nM; IC50 [1, 7]: < 100 nM
60 | CC1=C(Cc2ccc(I)cc2)C(=O)c2ccccc2C1=O [B-b-13] | – | – | Tox/L6 ([4]; grey line ref 9): 138.6 µM; IC50 ([3]; grey line ref 9): 115 nM
61 | CC1=C(Cc2cccc(C#N)c2)C(=O)c2ccccc2C1=O [B-b-30] | 190 | 72.6 | –
62 | CC1=C(Cc2ccccc2)C(=O)c2ccccc2C1=O [B-b-31] | – | – | IC50 ([3]; grey line ref 9): 1700 nM
63 | CC1=C(Cc2ccc([N+](=O)[O-])c(F)c2)C(=O)c2ccccc2C1=O [B-b-32] | – | – | Tox/L6 ([4]; grey line ref 9): 189.2 µM; IC50 ([3]; grey line ref 9): 598 nM
64 | CC1=C(Cc2ccc3scnc3c2)C(=O)c2cc(F)ccc2C1=O [C-a-40] | 2060 | – | –
65 | CC1=C(Cc2ccco2)C(=O)c2cc(F)ccc2C1=O [C-a-43] | 947 | 3.8 | –
66 | CC1=C(Cc2ccc3ncsc3c2)C(=O)c2ccccc2C1=O [C-b-41] | 370 | 49.81 | –
67 | O=C1C(O)=C([C@H]2CC[C@H](c3ccc(Cl)cc3)CC2)C(=O)c2ccccc21 [atovaquone, reference compound] | – | – | solubility thermodynamic at 24 h [5]: 1.55 ± 0.04 µM (≈ 0.569 µg/mL)
